Test results as given in the NIST ThermoML archive (doi:10.1021/je7003758).

Assay: xn = mol fraction of the nth substance listed
Details: 298.15 K, Liquid

CCCCCCCCCl [1-chlorooctane] + CN1CCCC1=O
mass density [kg/m3]
Details	x2 = 0.0969	x2 = 0.2014	x2 = 0.3097	x2 = 0.4076	x2 = 0.5021	x2 = 0.6022	x2 = 0.7005	x2 = 0.8007	x2 = 0.9008
100 kPa	878	888.8	901.2	913.6	926.9	942.5	959.8	979.6	1002.2
500 kPa	878.3	889.1	901.5	913.9	927.2	942.8	960	979.8	1002.4
1000 kPa	878.6	889.4	901.9	914.3	927.5	943.1	960.3	980.1	1002.7
1500 kPa	879	889.8	902.3	914.6	927.8	943.4	960.6	980.4	1003
2000 kPa	879.4	890.2	902.5	914.9	928.2	943.7	960.9	980.7	1003.2
2500 kPa	879.7	890.6	902.9	915.2	928.5	944.1	961.2	981	1003.5
2900 kPa	–	–	–	–	–	944.4	–	–	–
3000 kPa	880.2	890.9	903.3	915.6	928.8	–	961.6	981.3	1003.8
3400 kPa	880.5	–	–	–	–	–	–	–	–
3500 kPa	–	891.3	903.7	916	929.1	944.7	961.8	981.6	1004.1
4000 kPa	880.8	891.6	904	916.3	929.5	945	962.2	981.9	1004.4
4400 kPa	–	–	–	916.6	–	–	–	–	–
4500 kPa	881.2	892	904.4	–	929.8	945.3	962.4	982.2	1004.6
5000 kPa	881.6	892.3	904.7	917	930.2	945.7	962.8	982.5	1004.9
5500 kPa	882	892.7	905	917.3	930.4	946	963.1	982.8	1005.2
5900 kPa	–	–	–	–	930.8	–	–	–	–
6000 kPa	882.3	893.1	905.4	917.6	–	946.3	963.4	983.1	1005.5
6500 kPa	882.7	893.4	905.8	917.9	931.1	946.6	963.7	983.3	1005.8
7000 kPa	883.1	893.8	906.1	918.4	931.5	946.9	964	983.6	1006.1
7400 kPa	883.4	–	–	–	–	–	–	–	–
7500 kPa	–	894.1	906.4	918.6	931.8	947.2	964.3	983.9	1006.4
7900 kPa	883.7	–	–	–	–	–	–	–	–
8000 kPa	–	894.4	906.7	918.9	932.1	947.5	964.6	984.2	1006.6
8500 kPa	884.1	894.8	907	919.2	932.5	947.8	964.9	984.5	1007
9000 kPa	884.4	895.1	907.4	919.6	932.8	948.1	965.2	984.8	1007.2
9500 kPa	884.8	895.5	907.8	920	933.1	948.4	965.5	985.1	1007.5
9900 kPa	–	–	–	–	–	–	–	985.4	–
10000 kPa	885.3	895.9	908.1	920.4	933.5	948.8	965.9	–	1007.8
10400 kPa	–	–	–	–	–	–	–	–	1008
10500 kPa	885.6	896.2	908.5	920.7	933.8	949.1	966.1	985.7	–
10900 kPa	–	–	–	–	–	–	–	986	–
11000 kPa	886	896.5	908.8	921.1	934.2	949.5	966.5	–	1008.3
11400 kPa	–	–	–	–	–	–	966.7	–	–
11500 kPa	886.3	896.9	909.1	921.3	934.5	949.7	–	986.3	1008.6
11900 kPa	886.6	–	–	–	–	–	–	–	–
12000 kPa	–	897.3	909.5	921.6	934.8	950.1	967	986.5	1008.8
12500 kPa	887	897.6	909.8	922	935.1	950.4	967.3	986.8	1009.2
12900 kPa	–	–	–	–	–	950.6	–	–	–
13000 kPa	887.4	897.9	910.1	922.3	935.4	–	967.6	987.1	1009.4
13500 kPa	887.7	898.3	910.4	922.6	935.7	950.9	967.9	987.4	1009.7
13900 kPa	–	898.5	–	–	–	–	–	–	–
14000 kPa	888.1	–	910.8	922.9	936	951.2	968.2	987.7	1009.9
14400 kPa	–	898.9	–	–	–	–	–	–	–
14500 kPa	888.4	–	911.1	923.3	936.3	951.5	968.4	–	1010.1
14600 kPa	–	–	–	–	–	–	–	988	–
14900 kPa	–	–	–	–	–	–	–	–	1010.4
15000 kPa	888.7	899.2	911.4	923.5	936.6	951.8	968.8	988.2	–
15400 kPa	–	899.5	–	–	–	–	–	–	–
15500 kPa	889	–	911.7	923.9	936.9	952.1	969	988.4	1010.7
15900 kPa	–	–	–	–	937.2	–	969.3	–	–
16000 kPa	889.4	899.9	912.1	924.2	–	952.4	–	988.7	1011
16500 kPa	889.7	900.3	912.4	924.5	937.5	952.7	969.6	988.9	1011.2
17000 kPa	–	900.6	912.8	924.9	937.8	953	970	989.2	1011.5
17100 kPa	890.1	–	–	–	–	–	–	–	–
17500 kPa	890.4	900.9	913.1	925.2	938.1	953.2	970.2	989.5	1011.7
18000 kPa	890.7	901.2	913.4	925.5	938.4	953.5	970.4	989.7	1012
18500 kPa	891.1	901.5	913.7	925.7	938.7	953.8	970.8	990	1012.2
19000 kPa	891.4	901.9	914.1	926.1	939.1	954.2	971	990.5	1012.5
19400 kPa	–	902.2	–	926.4	–	–	971.4	–	–
19500 kPa	891.7	–	914.4	–	939.3	954.5	–	990.7	1012.8
20000 kPa	892.1	902.6	914.7	–	939.8	954.8	971.7	–	1013.2
20100 kPa	–	–	–	926.8	–	–	–	991	–
